Laboratory results taken from US20250333407A1, “Compounds and Their Use for Treatment of Hemoglobinopathies” (Bristol-Myers Squibb Company, priority 2024, published 2025).

Key:
Type in all cases: cell-based
[1] = target: T1, WIZ (Homo sapiens, UniProt O95785+Q96SW2); assay: HUDEP-2 WIZ HiBiT degradation assay; conditions: HiBiT-tagged WIZ degradation in HUDEP-2 cells, 24 hours of treatment; read-out: WIZ EC50
T1 construct: HUDEP-2 cells engineered to express a HiBiT tag in either the WIZ (Widely interspaced zinc finger) or ZBTB7A
T1 sequence (O95785 whole entry): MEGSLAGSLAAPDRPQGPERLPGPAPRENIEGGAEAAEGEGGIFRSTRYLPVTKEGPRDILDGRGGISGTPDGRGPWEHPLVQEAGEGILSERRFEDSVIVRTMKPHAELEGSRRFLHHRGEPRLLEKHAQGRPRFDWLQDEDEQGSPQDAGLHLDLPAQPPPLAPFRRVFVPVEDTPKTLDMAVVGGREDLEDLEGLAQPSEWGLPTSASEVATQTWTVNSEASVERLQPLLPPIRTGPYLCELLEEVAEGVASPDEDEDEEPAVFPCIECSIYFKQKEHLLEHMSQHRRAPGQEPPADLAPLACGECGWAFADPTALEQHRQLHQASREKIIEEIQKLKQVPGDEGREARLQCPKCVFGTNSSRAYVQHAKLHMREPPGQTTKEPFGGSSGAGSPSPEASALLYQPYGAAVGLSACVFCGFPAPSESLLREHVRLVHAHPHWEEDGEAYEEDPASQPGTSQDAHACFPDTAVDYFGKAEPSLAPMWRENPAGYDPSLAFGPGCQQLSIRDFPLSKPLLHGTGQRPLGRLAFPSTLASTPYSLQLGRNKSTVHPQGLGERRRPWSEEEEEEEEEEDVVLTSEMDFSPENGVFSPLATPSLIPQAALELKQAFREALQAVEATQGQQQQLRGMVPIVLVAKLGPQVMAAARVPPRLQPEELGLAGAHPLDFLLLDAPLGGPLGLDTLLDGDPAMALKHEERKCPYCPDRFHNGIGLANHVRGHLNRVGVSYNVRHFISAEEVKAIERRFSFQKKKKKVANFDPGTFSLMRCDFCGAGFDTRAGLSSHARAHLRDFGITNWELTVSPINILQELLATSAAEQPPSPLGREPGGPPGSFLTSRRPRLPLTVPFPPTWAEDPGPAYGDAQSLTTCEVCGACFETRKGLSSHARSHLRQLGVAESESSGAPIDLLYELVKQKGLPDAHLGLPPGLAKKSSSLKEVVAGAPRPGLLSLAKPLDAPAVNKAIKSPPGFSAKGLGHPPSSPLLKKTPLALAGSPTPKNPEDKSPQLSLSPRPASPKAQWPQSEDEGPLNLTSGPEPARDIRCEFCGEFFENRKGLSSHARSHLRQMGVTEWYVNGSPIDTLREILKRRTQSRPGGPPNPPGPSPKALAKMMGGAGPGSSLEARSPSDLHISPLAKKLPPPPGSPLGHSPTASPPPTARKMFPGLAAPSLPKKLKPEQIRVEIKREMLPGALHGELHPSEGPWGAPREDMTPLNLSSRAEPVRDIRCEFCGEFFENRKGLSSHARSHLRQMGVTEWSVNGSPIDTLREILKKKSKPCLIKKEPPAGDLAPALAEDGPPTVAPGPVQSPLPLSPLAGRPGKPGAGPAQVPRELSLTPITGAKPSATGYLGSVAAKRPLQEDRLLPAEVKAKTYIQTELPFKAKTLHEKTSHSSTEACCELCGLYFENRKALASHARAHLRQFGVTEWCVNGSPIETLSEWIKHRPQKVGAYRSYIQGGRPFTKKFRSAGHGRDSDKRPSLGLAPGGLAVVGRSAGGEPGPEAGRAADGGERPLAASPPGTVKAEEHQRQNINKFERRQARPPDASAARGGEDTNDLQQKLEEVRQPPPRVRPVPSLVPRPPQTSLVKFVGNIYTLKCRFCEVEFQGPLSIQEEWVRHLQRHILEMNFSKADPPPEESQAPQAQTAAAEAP
T1 sequence (Q96SW2 whole entry): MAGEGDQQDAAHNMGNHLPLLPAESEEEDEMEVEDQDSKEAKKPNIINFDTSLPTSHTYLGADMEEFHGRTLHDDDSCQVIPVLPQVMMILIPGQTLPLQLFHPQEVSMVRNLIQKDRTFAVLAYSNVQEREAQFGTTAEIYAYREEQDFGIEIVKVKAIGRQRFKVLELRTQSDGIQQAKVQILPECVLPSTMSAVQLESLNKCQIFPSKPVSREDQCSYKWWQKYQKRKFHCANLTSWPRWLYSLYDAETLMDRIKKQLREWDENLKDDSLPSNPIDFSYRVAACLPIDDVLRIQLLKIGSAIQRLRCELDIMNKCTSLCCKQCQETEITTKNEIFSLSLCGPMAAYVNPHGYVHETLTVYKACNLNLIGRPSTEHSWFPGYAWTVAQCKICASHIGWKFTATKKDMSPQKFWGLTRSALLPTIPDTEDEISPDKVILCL
T1 sequence (Q16531 whole entry partner): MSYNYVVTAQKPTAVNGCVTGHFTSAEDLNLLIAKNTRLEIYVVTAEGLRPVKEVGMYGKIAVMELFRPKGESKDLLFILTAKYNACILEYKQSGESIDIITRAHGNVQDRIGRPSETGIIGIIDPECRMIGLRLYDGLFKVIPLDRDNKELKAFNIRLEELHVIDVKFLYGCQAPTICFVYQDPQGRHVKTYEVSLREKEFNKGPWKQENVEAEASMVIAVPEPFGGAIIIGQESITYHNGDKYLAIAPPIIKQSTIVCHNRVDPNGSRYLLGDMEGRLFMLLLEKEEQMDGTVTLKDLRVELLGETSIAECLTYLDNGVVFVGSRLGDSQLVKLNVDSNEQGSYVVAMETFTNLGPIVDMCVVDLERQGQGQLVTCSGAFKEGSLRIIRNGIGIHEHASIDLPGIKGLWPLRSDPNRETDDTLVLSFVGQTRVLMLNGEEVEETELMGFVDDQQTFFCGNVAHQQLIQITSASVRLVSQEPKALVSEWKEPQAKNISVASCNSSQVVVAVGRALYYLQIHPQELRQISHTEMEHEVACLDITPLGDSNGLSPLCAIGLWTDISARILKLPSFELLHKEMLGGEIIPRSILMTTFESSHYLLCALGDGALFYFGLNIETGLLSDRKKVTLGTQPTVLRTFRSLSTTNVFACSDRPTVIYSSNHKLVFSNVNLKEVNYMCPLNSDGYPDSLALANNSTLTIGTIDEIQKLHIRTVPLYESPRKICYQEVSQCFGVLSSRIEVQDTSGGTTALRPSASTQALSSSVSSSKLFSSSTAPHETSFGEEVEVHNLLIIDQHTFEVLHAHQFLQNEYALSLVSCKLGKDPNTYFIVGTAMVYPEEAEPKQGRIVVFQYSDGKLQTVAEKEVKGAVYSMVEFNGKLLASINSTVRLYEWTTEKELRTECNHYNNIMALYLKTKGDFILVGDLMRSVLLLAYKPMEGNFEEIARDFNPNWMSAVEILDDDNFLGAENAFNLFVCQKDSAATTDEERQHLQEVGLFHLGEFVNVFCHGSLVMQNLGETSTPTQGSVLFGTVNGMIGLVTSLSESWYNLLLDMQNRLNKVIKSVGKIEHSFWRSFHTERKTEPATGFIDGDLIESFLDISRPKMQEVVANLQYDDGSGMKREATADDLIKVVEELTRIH
Method: (§1) WIZ Assay and ZBTB7A EC50 Assays. The HiBiT degradation assays for WIZ and ZBTB7A in HUDEP-2 cells were performed as described below. HUDEP-2 cells engineered to express a HiBiT tag in either the WIZ (Widely interspaced zinc finger) or ZBTB7A (Zinc Finger And BTB Domain Containing 7A) proteins were maintained in low attachment flasks in StemSpan SFEM II media supplemented with Penicillin-Streptomycin (50 U/mL), rhSCF (50 ng/mL), rhEPO (3 IU/mL), dexamethasone (0.4 μg/mL) and doxycycline (1 μg/mL). Prior to start of the assay, cell count and viability were measured by trypan blue exclusion using the Vi-cell XR cell viability analyzer.
For the HUDEP-2 WIZ HiBiT assay, cells were transferred to a 50 mL conical and centrifuged at 500 g for five minutes. Cells were resuspended in fresh StemSpan SFEM II media supplemented with Penicillin-Streptomycin (50 U/mL), rhSCF (50 ng/mL), rhEPO (3 IU/mL), dexamethasone (0.4 μg/mL) and doxycycline (1 μg/mL) at a density of 1.0×10^6 cells/ml. Forty microliters of cell suspension was dispensed into 384-well Low Flange White Flat Bottom Polystyrene TC-treated Microplates containing pre-dispensed compounds, using a VIAFLO 384 liquid hander, and placed in a 37° C. incubator with 5% CO2. […] After 24 hours of treatment, 40 μL Nano-Glo HiBiT Lytic Detection System reagent was dispensed into each well using a VIAFLO 384 liquid hander. Plates were incubated for 25 minutes at room temperature and the luminescence was read as relative luminescent units using the EnVision plate reader. EC50 and Y-min values were calculated using curves calculated from dotmatics software after the normalization to the DMSO control of 10 different concentrations: 10, 3.33, 1.11, 0.37, 0.12, 0.04 0.0137, 0.0046, 0.0015 and […] respectively.

[2] = target: T2, ZBTB7A (Homo sapiens, UniProt O95365+Q96SW2); assay: HUDEP-2 ZBTB7A HiBiT degradation assay; conditions: HiBiT-tagged ZBTB7A degradation in HUDEP-2 cells, 24 hours of treatment; read-out: ZBTB7A EC50
T2 construct: HUDEP-2 cells engineered to express a HiBiT tag in either the WIZ (Widely interspaced zinc finger) or ZBTB7A
T2 sequence (O95365 whole entry): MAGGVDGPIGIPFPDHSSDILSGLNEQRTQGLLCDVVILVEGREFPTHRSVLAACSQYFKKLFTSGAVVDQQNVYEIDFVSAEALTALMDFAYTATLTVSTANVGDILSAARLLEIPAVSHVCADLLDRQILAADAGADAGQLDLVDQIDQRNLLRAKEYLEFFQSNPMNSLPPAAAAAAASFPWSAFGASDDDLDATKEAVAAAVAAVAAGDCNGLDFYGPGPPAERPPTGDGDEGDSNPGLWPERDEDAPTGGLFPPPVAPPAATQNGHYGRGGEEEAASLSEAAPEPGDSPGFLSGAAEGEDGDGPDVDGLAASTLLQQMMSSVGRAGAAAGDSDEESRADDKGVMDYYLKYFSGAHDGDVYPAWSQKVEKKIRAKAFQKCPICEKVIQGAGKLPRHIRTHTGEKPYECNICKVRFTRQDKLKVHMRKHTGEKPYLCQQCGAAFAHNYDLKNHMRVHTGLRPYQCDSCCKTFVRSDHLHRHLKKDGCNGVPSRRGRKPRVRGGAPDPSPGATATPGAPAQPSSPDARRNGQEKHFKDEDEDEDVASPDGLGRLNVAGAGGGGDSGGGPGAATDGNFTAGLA
T2 sequence (Q96SW2 whole entry): as the sequence (Q96SW2 whole entry) above
T2 sequence (Q16531 whole entry partner): as the sequence (Q16531 whole entry partner) above
Method: as §1
For the HUDEP-2 ZBTB7A HiBiT assay, cell count and viability were measured by trypan blue exclusion using the Vi-cell XR cell viability analyzer and the cells were transferred to a 50 mL conical and centrifuged at 500 g for five minutes. Cells were resuspended in fresh IMDM media supplemented with L-Glutamine (1×), Penicillin-Streptomycin (50 U/mL), holo-transferrin (330 μg/mL), heparin (2 IU/mL), r-human Insulin (10 μg/mL), rhEPO (3 IU/mL), rhSCF (100 ng/mL)+Dox (1 μg/mL) and 5% human plasma in low attachment flasks, which were placed in a 37° C. incubator with 5% CO2. After 48 hours, cell count and viability were measured by trypan blue exclusion using the Vi-cell XR cell viability analyzer. The HUDEP-2 ZBTB7A cells were transferred to a 50 mL conical, centrifuged at 500 g for five minutes and resuspended at a density of 1.0×10^6 cells/ml in IMDM media supplemented with L-Glutamine (1×), Penicillin-Streptomycin (50 U/mL), holo-transferrin (330 μg/mL), heparin (2 IU/mL), r-human Insulin (10 μg/mL), rhEPO (3 IU/mL), rhSCF (100 ng/mL)+Dox (1 μg/mL) and 5% human plasma. Forty microliters of cell suspension was dispensed into 384-well Low Flange White Flat Bottom Polystyrene TC-treated Microplates containing pre-dispensed compounds, using a VIAFLO 384 liquid hander, and placed in a 37° C. incubator with 5% CO2. […] After 24 hours of treatment, 40 μL Nano-Glo HiBiT Lytic Detection System reagent was dispensed into each well using a VIAFLO 384 liquid hander. Plates were incubated for 25 minutes at room temperature and the luminescence was read as relative luminescent units using the EnVision plate reader. EC50 and Y-min values were calculated using curves calculated from dotmatics software after the normalization to the DMSO control of 10 different concentrations: 10, 3.33, 1.11, 0.37, 0.12, 0.04 0.0137, 0.0046, 0.0015 and […] respectively.

[3] = tested on: HbF; assay: HbF HiBiT induction assay in HUDEP-2 cells; conditions: HUDEP-2 cells with HiBiT tag in HBG1/2, 72 hours of treatment; area under the dose response curve, higher AUC = greater HbF induction
Method: HbF HiBiT induction assay. The HiBiT induction assay for HbF in HUDEP-2 cells was performed as described below. HUDEP-2 cells engineered to express a HiBiT tag in HBG1/2 were maintained at a density of 0.1-1×10^6 cells/ml in StemSpan SFEM II supplemented with 1% penicillin/streptomycin, hSCF (50 ng/mL), erythropoietin (EPO; 3 IU/mL), dexamethasone (DEX; 0.4 μg/mL), and doxycycline hyclate (DOX; 1 μg/mL). The cells were cultured in low adherence flasks, in a humidified incubator, set at 37° C. with 5% CO2. Cell counts and viability were measured by trypan blue exclusion using the Vi-CELL XR cell viability analyzer and the cell growth was consistently maintained in log phase.
Prior to the start of experiments, HbF HiBiT-tagged HUDEP-2 cells were transferred to a 50 mL conical and centrifuged at 500×g for 5 minutes, the supernatant removed, and the pellet washed in 5 mL of 1×PBS. The washed cells were centrifuged again at 500×g for 5 minutes and resuspended in IMDM containing; 1×glutamine, 1×penicillin/streptomycin, holo-transferrin (330 μg/mL), heparin (2 IU/mL), r-human insulin (10 μg/mL), EPO (3 IU/mL), 5% human plasma, hSCF (100 ng/mL) and DOX (1 μg/mL) to a final density of 0.3×10^6 cells/mL. Forty microliters of cell suspension were dispensed into 384-well Low Flange White Flat Bottom Polystyrene TC-treated Microplates containing pre-dispensed compounds, using a VIAFLO 384 liquid hander, and placed in a humidified incubator at 37° C. with 5% CO2. […] After 72 hours of treatment, 40 μL of Nano-Glo HiBiT Lytic Solution (prepared according to manufacturer's instructions) were dispensed into each well using a VIAFLO 384 liquid handler, and the plates were shaken for 20 seconds. Plates were incubated for 20 minutes at room temperature, and the luminescence was read as relative luminescent units using an EnVision plate reader.
Dose response curves were generated, and EC50, Ymax, and then area under the curve (AUC) values were calculated. HbF induction was measured using the calculated area under the curve (AUC) value, with higher AUC values indicative of greater HbF induction relative to lower AUC values.

Structure (SMILES)	DC50 [1] [µM]	DC50 [2] [µM]	HBF AUC [3]
Cc1cc(-c2cc3c(cc2Nc2cccc4c2C(=O)N([C@H]2CCC(=O)NC2=O)C4=O)N(C)C(=O)[C@@H](C)O3)cc(C)n1 [Compound 24, 4-(((R)-7-(2,6-dimethylpyridin-4-yl)-2,4-dimethyl-3-oxo-3,4-dihydro-2H-benzo[b][1,4]oxazin-6-yl)amino)-2-((S)-2,6-dioxopiperidin-3-yl)isoindoline-1,3-dione]	0.014	0.026	+++ (+++ = AUC ≥ 150)
CCN1C(=O)COc2cc(-c3ccnc(C)c3)c(Nc3cccc4c3C(=O)N([C@H]3CCC(=O)NC3=O)C4=O)cc21 [Compound 25, (S)-2-(2,6-dioxopiperidin-3-yl)-4-((4-ethyl-7-(2-methylpyridin-4-yl)-3-oxo-3,4-dihydro-2H-benzo[b][1,4]oxazin-6-yl)amino)isoindoline-1,3-dione]	0.018	0.024	+ (+ = 15 ≤ AUC < 100)
Cc1cc(-c2cc3c(cc2Nc2cccc4c2C(=O)N([C@H]2CCC(=O)NC2=O)C4=O)N(C2CC2)C(=O)CO3)ccn1 [Compound 26, (S)-4-((4-cyclopropyl-7-(2-methylpyridin-4-yl)-3-oxo-3,4-dihydro-2H-benzo[b][1,4]oxazin-6-yl)amino)-2-(2,6-dioxopiperidin-3-yl)isoindoline-1,3-dione]	0.013	0.098	++ (++ = 100 ≤ AUC < 150)
CC(=O)N1CCC(c2cc3c(cc2Nc2cccc4c2C(=O)N([C@H]2CCC(=O)NC2=O)C4=O)N(C)C(=O)[C@H](C)O3)CC1 [Compound 31, 4-(((S)-7-(1-acetylpiperidin-4-yl)-2,4-dimethyl-3-oxo-3,4-dihydro-2H-benzo[b][1,4]oxazin-6-yl)amino)-2-((S)-2,6-dioxopiperidin-3-yl)isoindoline-1,3-dione]	0.006	0.035	+++ (+++ = AUC ≥ 150)
CC(=O)N1CCC(c2cc3c(cc2Nc2cccc4c2C(=O)N([C@H]2CCC(=O)NC2=O)C4=O)N(C)C(=O)[C@@H](C)O3)CC1 [Compound 32, 4-(((R)-7-(1-acetylpiperidin-4-yl)-2,4-dimethyl-3-oxo-3,4-dihydro-2H-benzo[b][1,4]oxazin-6-yl)amino)-2-((S)-2,6-dioxopiperidin-3-yl)isoindoline-1,3-dione]	0.005	0.014	+++ (+++ = AUC ≥ 150)
COc1cc(-c2cc3c(cc2Nc2cccc4c2C(=O)N([C@H]2CCC(=O)NC2=O)C4=O)N(C)C(=O)[C@@H](C)O3)ccn1 [Compound 33, 2-((S)-2,6-dioxopiperidin-3-yl)-4-(((R)-7-(2-methoxypyridin-4-yl)-2,4-dimethyl-3-oxo-3,4-dihydro-2H-benzo[b][1,4]oxazin-6-yl)amino)isoindoline-1,3-dione]	0.021	0.024	+ (+ = 15 ≤ AUC < 100)

Continued, in another order:

DC50 [1] [µM]	DC50 [2] [µM]	Structure (SMILES)	HBF AUC [3]
0.006	0.011	Cc1cc(-c2cc3c(cc2Nc2cccc4c2C(=O)N([C@H]2CCC(=O)NC2=O)C4=O)N(C)C(=O)[C@@H](C)O3)c(F)cn1 [Compound 27, 2-((S)-2,6-dioxopiperidin-3-yl)-4-(((R)-7-(5-fluoro-2-methylpyridin-4-yl)-2,4-dimethyl-3-oxo-3,4-dihydro-2H-benzo[b][1,4]oxazin-6-yl)amino)isoindoline-1,3-dione]	+ (+ = 15 ≤ AUC < 100)
0.011	0.013	COc1cc(-c2cc3c(cc2Nc2cccc4c2C(=O)N([C@H]2CCC(=O)NC2=O)C4=O)N(C)C(=O)CO3)c(F)cn1 [Compound 28, (S)-2-(2,6-dioxopiperidin-3-yl)-4-((7-(5-fluoro-2-methoxypyridin-4-yl)-4-methyl-3-oxo-3,4-dihydro-2H-benzo[b][1,4]oxazin-6-yl)amino)isoindoline-1,3-dione]	+++ (+++ = AUC ≥ 150)
0.005	0.023	COc1cc(-c2cc3c(cc2Nc2cccc4c2C(=O)N([C@H]2CCC(=O)NC2=O)C4=O)N(C)C(=O)[C@H](C)O3)c(F)cn1 [Compound 29, 2-((S)-2,6-dioxopiperidin-3-yl)-4-(((S)-7-(5-fluoro-2-methoxypyridin-4-yl)-2,4-dimethyl-3-oxo-3,4-dihydro-2H-benzo[b][1,4]oxazin-6-yl)amino)isoindoline-1,3-dione]	+ (+ = 15 ≤ AUC < 100)
0.011	0.019	COc1cc(-c2cc3c(cc2Nc2cccc4c2C(=O)N([C@H]2CCC(=O)NC2=O)C4=O)N(C)C(=O)[C@@H](C)O3)c(F)cn1 [Compound 30, 2-((S)-2,6-dioxopiperidin-3-yl)-4-(((R)-7-(5-fluoro-2-methoxypyridin-4-yl)-2,4-dimethyl-3-oxo-3,4-dihydro-2H-benzo[b][1,4]oxazin-6-yl)amino)isoindoline-1,3-dione]	++ (++ = 100 ≤ AUC < 150)
0.011	0.011	COc1nccc(-c2cc3c(cc2Nc2cccc4c2C(=O)N([C@H]2CCC(=O)NC2=O)C4=O)N(C)C(=O)CO3)c1F [Compound 34, (S)-2-(2,6-dioxopiperidin-3-yl)-4-((7-(3-fluoro-2-methoxypyridin-4-yl)-4-methyl-3-oxo-3,4-dihydro-2H-benzo[b][1,4]oxazin-6-yl)amino)isoindoline-1,3-dione]	+++ (+++ = AUC ≥ 150)
